What is called LD50 is the dose at which mortality reaches 50%.

Values after ≈ are worked out from the molar mass of the structure shown. Read-outs that look alike come from different tables or passages of the source.

The test system of one series is Sarcina lutea ATCC 9341. The experiment in a line: Antimicrobial activity, serial dilution method on agar plate. Particulars: Micrococcus luteus, ATCC9341, read-out: Minimum Inhibitory Concentration (MIC). Format: cell-based.
Series [1] relates to Pseudomonas aeruginosa ATCC 10145. The description is as above. Format: cell-based. Particulars: ATCC10145, read-out: Minimum Inhibitory Concentration (MIC).
The subject of series [2] is Enterbactor aerogenes IFO 12979. The description is as above. Format: cell-based. As to conditions: read-out: Minimum Inhibitory Concentration (MIC).
The subject of a further series is Enterbactor cloacae 2. The series is described as above. Format: cell-based. As to conditions: read-out: Minimum Inhibitory Concentration (MIC).
The next series relates to Candida albicans KYU. Described as above. Format: cell-based. As to conditions: read-out: Minimum Inhibitory Concentration (MIC).
Series [3] deals with Bacillus subtilis ATCC 6633. The description is as above. Format: cell-based. As to conditions: ATCC6633, read-out: Minimum Inhibitory Concentration (MIC).
Series [4] deals with Klebsiella pneumoniae ST-101. The description is as above. Format: cell-based. As to conditions: ST101, read-out: Minimum Inhibitory Concentration (MIC).
The next series relates to Esherichia coli NIHJ. Described as above. Particulars: read-out: Minimum Inhibitory Concentration (MIC). In kind it is cell-based.
Another series deals with Proteus mirabilis 1287. The description is as above. Format: cell-based. Particulars: read-out: Minimum Inhibitory Concentration (MIC).
In series [5] the test system is Staphyrococcus aureus Newmann. The description is as above. Format: cell-based. Particulars: read-out: Minimum Inhibitory Concentration (MIC).
Series [6] has as its system Streptococcus faecalis IFO 12580. The description is as above. In kind it is cell-based. Particulars: Enterococcus faecalis, IFO12580, read-out: Minimum Inhibitory Concentration (MIC).
The test system of series [7] is Micrococcus flavus ATCC 10240a. The series is described as above. In kind it is cell-based. Particulars: ATCC10240A, read-out: Minimum Inhibitory Concentration (MIC).
The test system of series [8] is Serratia marcescens ATCC 14756. The description is as above. As to conditions: ATCC14756, read-out: Minimum Inhibitory Concentration (MIC). Format: cell-based.
The subject of series [9] is Staphyrococcus aureus FDA 209p. The series is described as above. In kind it is cell-based. Particulars: read-out: Minimum Inhibitory Concentration (MIC).
Series [10] deals with Salmonella typhimurium kh. The description is as above. In kind it is cell-based. Particulars: Salmonella enterica, read-out: Minimum Inhibitory Concentration (MIC).
The nature of the next series: Acute toxicity. Particulars: rat, in vivo, rats, dd strain, 18 to 22 g, fasted 12 hours. The protocol: Further, the acute toxicity of the compounds of the present invention having the formula (I) was determined by intravenous administration (i.v.) and oral administration (p.o.) in 5 to 6 groups of rats (dd strain; body weight, 18 to 22 g; 10 rats in each group) which had been fasted for 12 hours prior to the test.

The next series has as its system Streptomyces viridans. Nature of the series: Antimicrobial activity, serial dilution method on agar plate. Format: cell-based. As to conditions: read-out: Minimum Inhibitory Concentration (MIC).
Series [11] deals with Bacillus cereus ATCC 11778. The description is as above. In kind it is cell-based. As to conditions: ATCC11778, read-out: Minimum Inhibitory Concentration (MIC).
In a further series the test system is Bacillus anthracis. The experiment in a line: microbe, parasite or virus in culture. In kind it is cell-based. As to conditions: read-out: Minimum Inhibitory Concentration (MIC).
The test system of series [12] is Esherichia coli NIHJ JC-2. The experiment in a line: Antimicrobial activity, serial dilution method on agar plate. Format: cell-based. As to conditions: read-out: Minimum Inhibitory Concentration (MIC).
The mark [13] stands for this setting: iv, read-out: LD50 (50% lethal dose), i.v.
[14] abbreviates: po, read-out: LD50 (50% lethal dose), p.o.

Turning to `O=C(O)c1cn2c3c(cc(F)cc3c1=O)C1CCCCC12` (stereo not drawn) [Compound 1, 2-fluoro-7a,8,9,10,11,11a-hexahydro-4-oxo-4H-pyrido[3,2,1-jk]carbazol-5-carboxylic acid], the MIC is 50 µg/mL (≈ 174 µM) in the series on Sarcina lutea ATCC 9341; over 100 µg/mL in series [1]; 3.2 µg/mL (≈ 11.1 µM) in [2]; 3.2 µg/mL (≈ 11.1 µM) in the series on Enterbactor cloacae 2; over 500 µg/mL in the series with Candida albicans KYU; 1.6 µg/mL (≈ 5.57 µM) in series [3]. Further, the MIC in series [4] is 3.2 µg/mL (≈ 11.1 µM); in the series on Esherichia coli NIHJ it was 6.3 µg/mL (≈ 21.9 µM); with Proteus mirabilis 1287, 12.5 µg/mL (≈ 43.5 µM); in series [5], 6.3 µg/mL (≈ 21.9 µM); in [6], 100 µg/mL (≈ 348 µM); in series [7], 50 µg/mL (≈ 174 µM). The MIC was found to be 3.2 µg/mL (≈ 11.1 µM) in series [8]; 6.3 µg/mL (≈ 21.9 µM) in series [9]; 6.3 µg/mL (≈ 21.9 µM) in [10]; 100 µg/mL (≈ 348 µM) in the series on Streptomyces viridans; 25 µg/mL (≈ 87 µM) in series [11]; 3.2 µg/mL (≈ 11.1 µM) with Bacillus anthracis. In addition, the MIC in [12] amounted to 6.3 µg/mL (≈ 21.9 µM). The values for the LD50 in “Acute toxicity” (setting [13]) and in the series “Acute toxicity” (setting [14]) were 130 mg/kg and 5000 mg/kg, respectively.
On to `Nc1ccc2c3c1c(=O)c(C(=O)O)cn3C1CCCCC21` (stereo not drawn) [Compound 7, 3-amino-7a,8,9,10,11,11a-hexahydro-4-oxo-4H-pyrido[3,2,1-jk]carbazol-5-carboxylic acid], for which the MIC with Sarcina lutea ATCC 9341 was over 100 µg/mL; in series [1], over 100 µg/mL; in [2], 12.5 µg/mL (≈ 44 µM); with Enterbactor cloacae 2, 12.5 µg/mL (≈ 44 µM); in the series with Candida albicans KYU, over 500 µg/mL; in series [3] it was 6.3 µg/mL (≈ 22.2 µM). Further, the MIC in series [4] is 12.5 µg/mL (≈ 44 µM); in the series on Esherichia coli NIHJ it was 25 µg/mL (≈ 87.9 µM); in the series on Proteus mirabilis 1287 it was 50 µg/mL (≈ 176 µM); in series [5], 50 µg/mL (≈ 176 µM); in series [6], over 100 µg/mL; in series [7] it was over 100 µg/mL. The MIC in series [8] is 12.5 µg/mL (≈ 44 µM); in series [9] it was 50 µg/mL (≈ 176 µM); in series [10], 12.5 µg/mL (≈ 44 µM); in the series with Streptomyces viridans it was over 100 µg/mL; in series [11], 50 µg/mL (≈ 176 µM); in the series on Bacillus anthracis, 12.5 µg/mL (≈ 44 µM). Besides, in [12], the MIC was 50 µg/mL (≈ 176 µM). The LD50 came to 115 mg/kg in the series “Acute toxicity” (setting [13]) and 4500 mg/kg in “Acute toxicity” (setting [14]).
For the compound `O=C(O)c1cn2c3c(cccc3c1=O)C1CCCCC12` (stereo not drawn) [Compound 2, 7a,8,9,10,11,11a-Hexahydro-4-oxo-4H-pyrido[3,2,1-jk]carbazol-5-carboxylic acid], the MIC in the series on Sarcina lutea ATCC 9341 was 100 µg/mL (≈ 371 µM); in series [1] it was over 100 µg/mL; in [2] it was 12.5 µg/mL (≈ 46.4 µM); with Enterbactor cloacae 2 it was 12.5 µg/mL (≈ 46.4 µM); in the series with Candida albicans KYU, over 500 µg/mL; in series [3] it was 12.5 µg/mL (≈ 46.4 µM). For the same compound, the MIC in [4] is 12.5 µg/mL (≈ 46.4 µM); in the series on Esherichia coli NIHJ, 25 µg/mL (≈ 92.8 µM); with Proteus mirabilis 1287 it was 50 µg/mL (≈ 186 µM); in series [5], 25 µg/mL (≈ 92.8 µM); in [6] it was over 100 µg/mL; in [7], 100 µg/mL (≈ 371 µM). For the same compound, the MIC in series [8] is 12.5 µg/mL (≈ 46.4 µM); in series [9], 25 µg/mL (≈ 92.8 µM); in series [10], 25 µg/mL (≈ 92.8 µM); in the series with Streptomyces viridans, over 100 µg/mL; in series [11], 100 µg/mL (≈ 371 µM); in the series on Bacillus anthracis it was 25 µg/mL (≈ 92.8 µM). For the same compound, the MIC in [12] stood at 25 µg/mL (≈ 92.8 µM). Besides, the median lethal dose (LD50) in the series “Acute toxicity” (setting [13]) was found to be 120 mg/kg; in the series “Acute toxicity” (setting [14]), 5000 mg/kg.
On to `O=C(NN=Cc1ccc([N+](=O)[O-])o1)c1cn2c3c(cc(F)cc3c1=O)C1CCCCC12` (stereo not drawn) [Compound 11], for which the MIC in the series on Sarcina lutea ATCC 9341 was 100 µg/mL (≈ 236 µM); in series [1] it was over 100 µg/mL; in series [2] it was 6.3 µg/mL (≈ 14.8 µM); in the series with Enterbactor cloacae 2, 6.3 µg/mL (≈ 14.8 µM); in the series with Candida albicans KYU, over 500 µg/mL; in series [3] it was 3.2 µg/mL (≈ 7.54 µM). In addition, the MIC in [4] was 6.3 µg/mL (≈ 14.8 µM); in the series on Esherichia coli NIHJ it was 12.5 µg/mL (≈ 29.5 µM); with Proteus mirabilis 1287 it was 12.5 µg/mL (≈ 29.5 µM); in [5] it was 12.5 µg/mL (≈ 29.5 µM); in series [6], over 100 µg/mL; in [7] it was 100 µg/mL (≈ 236 µM). Besides, the MIC was 12.5 µg/mL (≈ 29.5 µM) in [8]; 12.5 µg/mL (≈ 29.5 µM) in series [9]; 12.5 µg/mL (≈ 29.5 µM) in series [10]; over 100 µg/mL in the series on Streptomyces viridans; 12.5 µg/mL (≈ 29.5 µM) in [11]; 6.3 µg/mL (≈ 14.8 µM) in the series on Bacillus anthracis. Also, in series [12], the MIC was 12.5 µg/mL (≈ 29.5 µM). The median lethal dose (LD50) in the series “Acute toxicity” (setting [13]) came out at 180 mg/kg; in the series “Acute toxicity” (setting [14]), 3000 mg/kg.
With `CCOC(=O)c1cn2c3c(cc(F)cc3c1=O)C1CCCCC12` (stereo not drawn) [Compound 3, ethyl 2-fluoro-7a,8,9,10,11,11a-hexahydro-4-oxo-4H-pyrido-[3,2,1-jk]carbazol-5-carboxylate], the MIC is 100 µg/mL (≈ 317 µM) in the series with Sarcina lutea ATCC 9341; over 100 µg/mL in [1]; 25 µg/mL (≈ 79.3 µM) in [2]; 12.5 µg/mL (≈ 39.6 µM) with Enterbactor cloacae 2; over 500 µg/mL in the series on Candida albicans KYU; 6.3 µg/mL (≈ 20 µM) in [3]. The MIC is 12.5 µg/mL (≈ 39.6 µM) in series [4]; 25 µg/mL (≈ 79.3 µM) in the series with Esherichia coli NIHJ; 25 µg/mL (≈ 79.3 µM) in the series on Proteus mirabilis 1287; 25 µg/mL (≈ 79.3 µM) in series [5]; over 100 µg/mL in series [6]; 100 µg/mL (≈ 317 µM) in series [7]. Besides, the MIC in [8] was 25 µg/mL (≈ 79.3 µM); in series [9] it was 25 µg/mL (≈ 79.3 µM); in [10], 25 µg/mL (≈ 79.3 µM); in the series on Streptomyces viridans, over 100 µg/mL; in [11], 100 µg/mL (≈ 317 µM); in the series on Bacillus anthracis it was 50 µg/mL (≈ 159 µM). In series [12], the MIC amounted to 12.5 µg/mL (≈ 39.6 µM). Besides, the values for the median lethal dose (LD50) in “Acute toxicity” (setting [13]) and in “Acute toxicity” (setting [14]) were 80 mg/kg and 3000 mg/kg, respectively.

These data come from patent US4293694A, “Pyrido[3,2,1-jk]carbazols” (Otsuka Pharmaceutical Co., Ltd., priority 1979, dated 1981).
